Laboratory results published in patent US8415469B2, “Compounds and methods for kinase modulation, and indications therefor” (Plexxikon Inc., priority 2005, dated 2013).

Key:
Type in all cases: biochemical
Syk = Syk (Homo sapiens, UniProt P43405); test: AlphaScreen kinase assay, Syk; conditions: read-out: IC50, activity toward kinase Syk
Description: (§1) AlphaScreen assay was used to screen additional kinases. The assay is similarly dependent on the phosphorylation of a peptide substrate. In this assay, an antibody that recognizes phosphorylated substrate is bound to an acceptor bead. The peptide substrate is attached to biotin, which binds to a donor head that contains streptavidin. Thus phosphorylated substrate is bound by antibody and streptavidin, bringing the donor and acceptor heads into close proximity when kinase is not inhibited. The donor produces singlet oxygen which results in emission from the acceptor when they are in close proximity. Conversely, when kinase is inhibited, the donor and acceptor beads are not associated and the emission from the acceptor is reduced.
(§2) AlphaScreen assays were done using compounds dissolved in DMSO to a concentration of 20 mM. The compounds were diluted accordingly to the desired final concentrations in each sample well, using 1:3 serial dilution for a total of 8 concentration points.

MAP2K1 = molecular target: T1, MAP2K1 (Homo sapiens, UniProt Q02750); test: Z'-Lyte FRET kinase assay (Invitrogen), MAP2K1; conditions: read-out: IC50, activity toward kinase MAP2K1
T1 construct: purchased Invitrogen (assay run by Invitrogen)

IGF1R = IGF1R (Homo sapiens, UniProt P08069); test: AlphaScreen kinase assay, IGF1R; conditions: read-out: IC50, activity toward kinase IGF1R
Sequence of IGF1R (P08069 31-1367): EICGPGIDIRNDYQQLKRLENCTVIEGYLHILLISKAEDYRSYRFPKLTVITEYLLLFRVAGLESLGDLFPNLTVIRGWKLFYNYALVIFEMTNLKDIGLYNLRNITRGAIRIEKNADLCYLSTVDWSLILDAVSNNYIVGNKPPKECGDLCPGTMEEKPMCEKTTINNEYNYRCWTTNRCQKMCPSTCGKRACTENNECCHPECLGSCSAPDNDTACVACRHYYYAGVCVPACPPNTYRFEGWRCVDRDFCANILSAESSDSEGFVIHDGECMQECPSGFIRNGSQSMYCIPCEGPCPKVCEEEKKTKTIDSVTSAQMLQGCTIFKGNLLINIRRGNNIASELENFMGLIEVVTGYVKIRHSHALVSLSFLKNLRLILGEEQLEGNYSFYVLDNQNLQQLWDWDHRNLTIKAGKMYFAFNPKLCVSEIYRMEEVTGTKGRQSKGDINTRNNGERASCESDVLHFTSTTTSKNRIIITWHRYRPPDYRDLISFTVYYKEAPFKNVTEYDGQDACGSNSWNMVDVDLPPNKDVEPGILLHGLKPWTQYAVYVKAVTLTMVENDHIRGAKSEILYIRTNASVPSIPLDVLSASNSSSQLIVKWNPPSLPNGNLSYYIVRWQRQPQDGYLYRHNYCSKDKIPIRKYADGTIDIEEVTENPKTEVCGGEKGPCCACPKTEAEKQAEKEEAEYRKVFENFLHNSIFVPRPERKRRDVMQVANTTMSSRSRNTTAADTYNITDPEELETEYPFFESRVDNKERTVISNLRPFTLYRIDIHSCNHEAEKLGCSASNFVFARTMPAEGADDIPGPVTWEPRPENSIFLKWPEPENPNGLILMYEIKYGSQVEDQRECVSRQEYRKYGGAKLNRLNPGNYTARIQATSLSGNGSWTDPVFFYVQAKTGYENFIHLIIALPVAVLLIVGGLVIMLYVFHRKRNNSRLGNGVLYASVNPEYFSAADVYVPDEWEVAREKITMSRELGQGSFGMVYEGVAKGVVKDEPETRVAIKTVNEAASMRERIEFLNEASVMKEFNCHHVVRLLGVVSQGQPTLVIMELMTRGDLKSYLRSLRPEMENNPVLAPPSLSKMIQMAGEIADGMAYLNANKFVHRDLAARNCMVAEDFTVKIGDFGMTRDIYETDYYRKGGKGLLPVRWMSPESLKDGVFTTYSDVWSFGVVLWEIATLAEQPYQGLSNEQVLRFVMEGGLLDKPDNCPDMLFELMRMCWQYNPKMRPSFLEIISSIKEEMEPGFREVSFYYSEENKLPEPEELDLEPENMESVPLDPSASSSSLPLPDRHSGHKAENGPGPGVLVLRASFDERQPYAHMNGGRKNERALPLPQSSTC

Itk = molecular target: T2, Itk (Homo sapiens, UniProt Q08881); test: AlphaScreen kinase assay, Itk; conditions: read-out: IC50, activity toward kinase Itk
T2 sequence (Q08881 1-620): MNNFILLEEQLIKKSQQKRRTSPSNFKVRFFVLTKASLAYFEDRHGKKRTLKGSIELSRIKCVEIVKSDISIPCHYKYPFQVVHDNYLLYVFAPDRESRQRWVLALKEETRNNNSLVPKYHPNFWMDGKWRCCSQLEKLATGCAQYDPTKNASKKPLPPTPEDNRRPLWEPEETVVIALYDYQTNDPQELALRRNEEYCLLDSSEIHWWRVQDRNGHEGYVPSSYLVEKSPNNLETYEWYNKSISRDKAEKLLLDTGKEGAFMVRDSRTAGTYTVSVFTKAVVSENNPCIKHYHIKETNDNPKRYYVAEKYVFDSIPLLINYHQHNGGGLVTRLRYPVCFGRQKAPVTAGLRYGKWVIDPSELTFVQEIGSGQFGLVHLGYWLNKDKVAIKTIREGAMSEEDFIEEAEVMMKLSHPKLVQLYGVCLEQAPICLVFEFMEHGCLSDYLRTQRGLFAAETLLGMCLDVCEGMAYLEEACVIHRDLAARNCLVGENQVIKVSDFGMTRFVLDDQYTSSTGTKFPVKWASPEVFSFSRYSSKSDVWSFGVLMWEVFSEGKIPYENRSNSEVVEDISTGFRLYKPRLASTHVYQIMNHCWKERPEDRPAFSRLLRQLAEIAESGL
In short: (§3)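 Uses phospho-specific antibody on acceptor beads plus streptavidin donor beads capturing biotinylated peptide substrate; singlet oxygen from donor excites nearby acceptor. Inhibitors tested in 8-point, 1:3 titrations starting from 20 mM DMSO solutions.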

Zap70 = molecular target: T3, Zap70 (Homo sapiens, UniProt P43403); test: AlphaScreen kinase assay, Zap70; conditions: read-out: IC50, activity toward kinase Zap70
T3 construct: P1868.pFastBac1 ZAP70 D327-G606 HIS, WT; His7 (HHHHHHH) (C); made in house
T3 sequence (P43403 with tags, fused parts or gaps): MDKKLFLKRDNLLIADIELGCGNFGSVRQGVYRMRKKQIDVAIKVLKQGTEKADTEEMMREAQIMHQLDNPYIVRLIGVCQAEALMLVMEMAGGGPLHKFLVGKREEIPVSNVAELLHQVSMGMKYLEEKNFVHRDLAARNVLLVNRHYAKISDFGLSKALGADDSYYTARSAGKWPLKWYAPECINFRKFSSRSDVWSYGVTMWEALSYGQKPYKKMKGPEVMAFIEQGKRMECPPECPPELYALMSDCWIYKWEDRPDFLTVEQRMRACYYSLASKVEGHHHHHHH
In short: as §3

Jnk2 = molecular target: T4, Jnk2 (Homo sapiens, UniProt P45984); test: AlphaScreen kinase assay, Jnk2; conditions: read-out: IC50, activity toward kinase Jnk2
T4 construct: purchased Roche Protein Expression Group (Indianapolis, IN)
T4 sequence (P45984 whole entry): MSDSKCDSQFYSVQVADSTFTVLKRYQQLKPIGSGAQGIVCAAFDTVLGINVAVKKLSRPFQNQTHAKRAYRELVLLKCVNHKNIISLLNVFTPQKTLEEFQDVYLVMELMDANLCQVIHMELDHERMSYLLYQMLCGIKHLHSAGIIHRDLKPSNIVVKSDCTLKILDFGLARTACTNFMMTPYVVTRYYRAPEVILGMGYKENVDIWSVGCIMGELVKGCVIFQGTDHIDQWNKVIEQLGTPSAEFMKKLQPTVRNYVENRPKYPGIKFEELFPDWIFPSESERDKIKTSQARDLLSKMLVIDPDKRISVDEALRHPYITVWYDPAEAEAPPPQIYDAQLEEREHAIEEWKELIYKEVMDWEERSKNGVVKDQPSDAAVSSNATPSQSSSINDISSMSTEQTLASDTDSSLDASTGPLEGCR
In short: as §3

PDGFRA = PDGFRA (Homo sapiens, UniProt P16234); test: AlphaScreen kinase assay, PDGFRA; conditions: read-out: IC50, activity toward kinase PDGFRA
Sequence of PDGFRA (P16234 24-1089): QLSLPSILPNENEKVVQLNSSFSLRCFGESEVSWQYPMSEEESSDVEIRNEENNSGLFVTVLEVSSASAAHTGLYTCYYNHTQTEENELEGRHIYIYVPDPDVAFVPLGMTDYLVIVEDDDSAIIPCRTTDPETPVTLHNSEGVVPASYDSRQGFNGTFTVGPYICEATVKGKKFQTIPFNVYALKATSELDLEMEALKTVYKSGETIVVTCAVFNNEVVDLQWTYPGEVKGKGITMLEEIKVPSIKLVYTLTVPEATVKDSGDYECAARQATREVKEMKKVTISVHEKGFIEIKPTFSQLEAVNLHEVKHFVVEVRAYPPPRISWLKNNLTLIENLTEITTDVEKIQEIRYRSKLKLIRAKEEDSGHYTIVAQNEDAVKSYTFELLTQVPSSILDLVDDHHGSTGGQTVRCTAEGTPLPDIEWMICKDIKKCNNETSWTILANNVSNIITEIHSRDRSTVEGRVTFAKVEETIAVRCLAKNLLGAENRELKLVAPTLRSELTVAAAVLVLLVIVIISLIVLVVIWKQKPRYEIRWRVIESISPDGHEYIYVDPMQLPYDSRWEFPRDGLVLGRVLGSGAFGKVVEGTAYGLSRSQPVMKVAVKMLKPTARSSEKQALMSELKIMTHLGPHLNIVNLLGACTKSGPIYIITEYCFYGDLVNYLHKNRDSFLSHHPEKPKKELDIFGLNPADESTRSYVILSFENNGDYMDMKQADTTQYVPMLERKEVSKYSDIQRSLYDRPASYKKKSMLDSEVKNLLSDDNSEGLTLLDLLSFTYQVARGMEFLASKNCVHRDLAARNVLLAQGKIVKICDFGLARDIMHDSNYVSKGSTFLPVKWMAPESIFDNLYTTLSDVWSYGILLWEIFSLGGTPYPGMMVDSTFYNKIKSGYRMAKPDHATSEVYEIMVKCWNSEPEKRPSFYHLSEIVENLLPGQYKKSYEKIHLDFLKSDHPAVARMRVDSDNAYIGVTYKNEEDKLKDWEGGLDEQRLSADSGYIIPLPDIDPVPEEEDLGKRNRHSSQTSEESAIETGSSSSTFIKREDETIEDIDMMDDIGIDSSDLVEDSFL
Description: as §1, §2

Gsk3β = Gsk3β (Homo sapiens, UniProt P49841); test: AlphaScreen kinase assay, Gsk3β; conditions: read-out: IC50, activity toward kinase Gsk3β
Sequence of Gsk3β (P49841 whole entry): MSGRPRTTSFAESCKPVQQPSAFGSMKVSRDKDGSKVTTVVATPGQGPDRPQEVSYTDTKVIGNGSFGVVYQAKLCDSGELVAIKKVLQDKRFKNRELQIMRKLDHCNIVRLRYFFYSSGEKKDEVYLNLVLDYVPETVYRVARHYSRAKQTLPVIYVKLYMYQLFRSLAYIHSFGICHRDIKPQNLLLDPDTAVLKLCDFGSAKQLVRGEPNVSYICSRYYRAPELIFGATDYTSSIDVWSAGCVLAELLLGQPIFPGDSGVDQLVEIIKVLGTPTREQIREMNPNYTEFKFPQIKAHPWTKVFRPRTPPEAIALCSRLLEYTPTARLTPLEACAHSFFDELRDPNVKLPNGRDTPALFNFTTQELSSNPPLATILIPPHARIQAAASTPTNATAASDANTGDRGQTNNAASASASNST
In short: as §3

Hck = Hck (Homo sapiens, UniProt P08631); test: AlphaScreen kinase assay, Hck; conditions: read-out: IC50, activity toward kinase Hck
Sequence of Hck (P08631 whole entry): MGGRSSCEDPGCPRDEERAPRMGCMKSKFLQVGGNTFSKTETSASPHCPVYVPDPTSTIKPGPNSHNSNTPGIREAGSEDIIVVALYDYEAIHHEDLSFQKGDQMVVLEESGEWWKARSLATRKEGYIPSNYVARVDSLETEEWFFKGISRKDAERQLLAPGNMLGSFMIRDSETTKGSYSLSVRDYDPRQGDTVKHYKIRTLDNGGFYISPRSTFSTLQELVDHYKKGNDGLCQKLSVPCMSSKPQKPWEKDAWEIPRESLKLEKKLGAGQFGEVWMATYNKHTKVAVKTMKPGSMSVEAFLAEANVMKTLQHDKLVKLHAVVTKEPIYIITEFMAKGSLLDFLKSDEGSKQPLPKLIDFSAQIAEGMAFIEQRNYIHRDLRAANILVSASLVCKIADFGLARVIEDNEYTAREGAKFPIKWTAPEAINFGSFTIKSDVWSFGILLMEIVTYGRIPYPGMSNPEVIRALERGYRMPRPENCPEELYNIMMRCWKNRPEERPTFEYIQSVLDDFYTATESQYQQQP
Description: as §1, §2

Pyk2 = molecular target: T5, Pyk2 (Homo sapiens, UniProt Q14289); test: AlphaScreen kinase assay, Pyk2; conditions: read-out: IC50, activity toward kinase Pyk2
T5 construct: purchased Upstate Biotechnology
T5 sequence (Q14289 whole entry): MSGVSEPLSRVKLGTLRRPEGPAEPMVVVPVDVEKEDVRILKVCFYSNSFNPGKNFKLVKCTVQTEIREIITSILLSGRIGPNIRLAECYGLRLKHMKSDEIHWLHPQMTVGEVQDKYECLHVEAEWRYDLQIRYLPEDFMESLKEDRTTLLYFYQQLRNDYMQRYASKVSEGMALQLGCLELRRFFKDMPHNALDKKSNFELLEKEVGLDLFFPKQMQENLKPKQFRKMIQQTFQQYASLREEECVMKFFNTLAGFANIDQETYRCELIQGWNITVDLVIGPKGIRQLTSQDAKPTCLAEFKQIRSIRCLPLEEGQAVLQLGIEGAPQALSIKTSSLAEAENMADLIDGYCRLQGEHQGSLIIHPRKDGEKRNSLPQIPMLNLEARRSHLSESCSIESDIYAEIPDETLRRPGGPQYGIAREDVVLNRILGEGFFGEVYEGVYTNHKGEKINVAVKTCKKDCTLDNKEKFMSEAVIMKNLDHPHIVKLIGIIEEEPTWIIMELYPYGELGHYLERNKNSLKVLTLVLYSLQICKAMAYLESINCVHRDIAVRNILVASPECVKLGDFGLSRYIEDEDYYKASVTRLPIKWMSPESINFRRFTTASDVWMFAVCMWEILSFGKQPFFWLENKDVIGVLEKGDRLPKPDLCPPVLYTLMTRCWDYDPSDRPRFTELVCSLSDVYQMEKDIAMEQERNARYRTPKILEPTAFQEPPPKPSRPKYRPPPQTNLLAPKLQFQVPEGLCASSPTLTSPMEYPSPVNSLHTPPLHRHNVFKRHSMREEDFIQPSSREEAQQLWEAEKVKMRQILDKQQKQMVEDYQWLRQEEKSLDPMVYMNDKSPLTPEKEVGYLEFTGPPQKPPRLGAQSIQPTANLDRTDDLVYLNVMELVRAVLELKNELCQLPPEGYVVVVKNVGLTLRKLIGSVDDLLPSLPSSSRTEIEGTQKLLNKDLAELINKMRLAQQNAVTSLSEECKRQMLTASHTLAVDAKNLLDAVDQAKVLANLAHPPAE

| IC50 (Syk) [µM] | IC50 (MAP2K1) [µM] | IC50 (IGF1R) [µM] | IC50 (Itk) [µM] | IC50 (Jnk2) [µM] | IC50 (PDGFRA) [µM] | IC50 (Hck) [µM] | Compound | further results |
| --- | --- | --- | --- | --- | --- | --- | --- | --- |
| ≤ 10 | ≤ 10 | ≤ 10 | ≤ 10 | – | – | – | Nc1cccc(-c2cnc3[nH]cc(C(=O)c4cc(O)ccc4F)c3c2)c1 [Compound P-0002] | – |
| – | ≤ 10 | ≤ 10 | ≤ 10 | – | – | – | Nc1cccc(-c2cnc3[nH]cc(C(=O)c4cccc(O)c4)c3c2)c1 [Compound P-0003] | – |
| – | – | ≤ 10 | ≤ 10 | – | – | – | Nc1cccc(-c2cnc3[nH]cc(C(=O)c4cccc(O)c4F)c3c2)c1 [Compound P-0004, [5-(3-amino-phenyl)-1H-pyrrolo[2,3-b]pyridin-3-yl]-(2-fluoro-3-hydroxy-phenyl)methanone] | IC50 (Zap70): ≤ 10 µM |
| – | ≤ 10 | – | ≤ 10 | ≤ 10 | – | – | Cc1c(O)cccc1C(=O)c1c[nH]c2ncc(-c3cccnc3)cc12 [Compound P-0006, (3-Hydroxy-2-methyl-phenyl)-(5-pyridin-3-yl-1H-pyrrolo[2,3b]pyridin-3-yl)-methanone] | – |
| – | – | – | – | – | ≤ 10 | ≤ 10 | CCCS(=O)(=O)Nc1ccc(F)c(C(=O)c2c[nH]c3ncccc23)c1F [Compound P-0007, Propane-1-sulfonic acid [2,4-difluoro-3-(1H-pyrrolo[2,3-b]pyridine-3-carbonyl)-phenyl]-amide] | IC50 (Gsk3β): ≤ 10 µM |
| – | ≤ 10 | – | ≤ 10 | – | – | – | CS(=O)(=O)c1cccc(-c2cnc3[nH]cc(C(=O)c4cc(O)ccc4F)c3c2)c1 [Compound P-0008, (2-Fluoro-5-hydroxy-phenyl)-[5-(3-methanesulfonyl-phenyl)-1H-pyrrolo[2,3-b]pyridin-3-yl]-methanone] | – |
| – | – | ≤ 10 | ≤ 10 | ≤ 10 | – | – | Oc1ccc(F)c(C(O)c2c[nH]c3ncc(-c4cccnc4)cc23)c1F (centres unmarked) [Compound P-0009, 2,4-difluoro-3-[hydroxy-(5-pyridin-3-yl-1H-pyrrolo[2,3-b]pyridin-3-yl)-methyl]-phenol] | – |
| ≤ 10 | ≤ 10 | – | – | – | – | – | O=C(O)/C=C/c1cccc(-c2cnc3[nH]cc(C(=O)c4cc(O)ccc4F)c3c2)c1 [Compound P-0010] | IC50 (Pyk2): ≤ 10 µM |
| ≤ 10 | – | – | – | ≤ 10 | – | – | O=C(O)/C=C/c1cccc(-c2cnc3[nH]cc(C(=O)c4ccccc4F)c3c2)c1 [Compound P-0033] | IC50 (Zap70): ≤ 10 µM |
| ≤ 10 | – | – | – | ≤ 10 | – | – | Oc1cccc(Cc2c[nH]c3ncc(-c4ccsc4)cc23)c1 [Compound P-0056] | IC50 (Pyk2): ≤ 10 µM |
| ≤ 10 | – | – | ≤ 10 | ≤ 10 | – | – | O=C(c1cccc(O)c1)c1c[nH]c2ncc(-c3cccs3)cc12 [Compound P-0196] | – |
| ≤ 10 | – | – | ≤ 10 | ≤ 10 | – | – | O=C(c1cccc(O)c1F)c1c[nH]c2ncc(-c3cccs3)cc12 [Compound P-0521, (2-fluoro-3-hydroxy-phenyl)-(5-thiophen-2-yl-1H-pyrrolo[2,3-b]pyridin-3-yl)-methanone] | IC50 (Pyk2): ≤ 10 µM |
| – | ≤ 10 | – | – | – | ≤ 10 | ≤ 10 | CCCS(=O)(=O)Nc1ccc(F)c(C(=O)c2c[nH]c3ncc(OC)cc23)c1F [Compound P-0806, Propane-1-sulfonic acid [2,4-difluoro-3-(5-methoxy-1H-pyrrolo[2,3-b]pyridine-3-carbonyl)-phenyl]-amide] | IC50 (Pyk2): ≤ 10 µM |
| – | – | – | – | – | ≤ 10 | – | CCCC(=O)Nc1ccc(F)c(Cc2c[nH]c3ncc(-c4cccnc4)cc23)c1F [Compound P-1280] | IC50 (Pyk2): ≤ 10 µM |
| – | – | – | – | ≤ 10 | – | ≤ 10 | CCCCNC(=O)Nc1ccc(F)c(C(=O)c2c[nH]c3ncc(-c4cccnc4)cc23)c1F [Compound P-1318, 1-Butyl-3-[2,4-difluoro-3-(5-pyridin-3-yl-1H-pyrrolo[2,3-b]pyridine-3-carbonyl)-phenyl]-urea] | – |
| ≤ 10 | – | ≤ 10 | – | – | ≤ 10 | ≤ 10 | COc1cccc(C(=O)c2c[nH]c3ncc(-c4cccc(NC(C)=O)c4)cc23)c1F [Compound P-1336, N-{3-[3-(2-Fluoro-3-methoxy-benzoyl)-1H-pyrrolo[2,3-b]pyridin-5-yl]-phenyl}-acetamide] | IC50 (Gsk3β): ≤ 10 µM |
| – | – | ≤ 10 | – | – | ≤ 10 | ≤ 10 | OCCOc1ccc(F)c(Cc2c[nH]c3ncc(-c4cccnc4)cc23)c1F [Compound P-1394, 2-[2,4-Difluoro-3-(5-pyridin-3-yl-1H-pyrrolo[2,3-b]pyridin-3-ylmethyl)-phenoxy]-ethanol] | – |
| – | – | – | – | – | ≤ 10 | ≤ 10 | COc1cc(OC)cc(C(=O)c2c[nH]c3ncc(-c4cccc(NS(C)(=O)=O)c4)cc23)c1 [Compound P-1426, N-{3-[3-(3,5-Dimethoxy-benzoyl)-1H-pyrrolo[2,3-b]pyridin-5-yl]-phenyl}-methanesulfonamide] | IC50 (Gsk3β): ≤ 10 µM |
